Legend:
[1] = test system: carrageenan-induced conjunctival edema; assay: Effect on Rat Carrageenan-Induced Conjunctival Edema; format: in vivo, rat (male Wistar); settings: for Edema weight / % Inhibition (edema weight): 3 hours, n = 10; for Edema weight: mean ± S.E.; for effect on rat carrageenan-induced conjunctival edema, in words: DCE-GS 3, 10, 30 mg/kg i.v., ester derivatives and GSH 30 mg/kg
Description: Effect on Rat Carrageenan-Induced Conjunctival Edema Male Wistar rats weighing about 130 g were used in the experiment. S-(α,β-Dicarboxyethyl)glutathione (hereinafter referred to as DCE-GS) dissolved in physiological saline and adjusted with sodium hydrochloride to pH 7 was administered in doses of 3, 10 and 30 mg/kg to rats through the caudal vein (control group: physiological saline). […] One minute later, 50 μl of 1% carrageenan solution was injected beneath the palpebral conjunctiva of the rat under pentobarbital anesthesia. After three hours, each rat was sacrificed and conjunctival edema was isolated and weighted.

hygroscopicity = format: physicochemical
platelet = settings: previously discovered by the inventors (Japanese Kokai 63-8337/1988; Japanese Application 1-79956/1989); cited from earlier work
[2] = test system: passive anaphylaxis of the back of the rat; assay: Effect on Passive Anaphylaxis of the Back of the Rat; format: in vivo, rat (male Wistar); settings: for Area, Inhibition (%) / Dye, Inhibition (%) / Area (of stain) / Dye: 30 minutes; for Area (of stain) / Dye: mean ± S.E., n = 4 or 5; for Area (of stain): saline 926 ± 65; for Dye: saline 767 ± 87
Description: Effect on Passive Anaphylaxis of the Back of the Rat
Male Wistar rats weighing about 130 g were used in the experiment. The back hair of each rat was clipped with clippers. The rat antiserum was injected intradermally at the back of the rat. After three days, DCE-GS was administered in doses of 3, 10 and 30 mg/kg (physiological saline to controls) into the caudal vein and after one minute 1 ml of a 50:50 (v/v) mixture of the antigen 1% ovalbumin and 2% Evans blue was administered intravenously to induce passive anaphylaxis. After 30 minutes, the rat was sacrificed and the stained area was determined. The pertinent area was removed and the dye was extracted with 20 ml of formaldehyde for determination.

[3] = previously discovered by the inventors (Japanese Kokai 63-8337/1988; Japanese Application 1-79956/1989); cited from earlier work
male ddY mice = assay: Intravenous Acute Toxicity Study; format: in vivo, mouse (male ddY); settings: i.v.; 100, 200, 400, 800 and 1,600 mg/kg; seventy-two-hour observation; groups of 5
Description: Intravenous Acute Toxicity Study
The intravenous acute toxicity study of DCE-GS was conducted in male ddY mice, weighing about 20 g, in groups of 5. The doses were 100, 200, 400, 800 and 1,600 mg/kg (common ratio 2). All the injections were adjusted with 1N sodium hydrochloride to pH 7.

[4] = test system: rat peritoneal mast cells; assay: Inhibitory Effect on the Release of Histamine from Rat Peritoneal Exudate Cells (Compound 48/80-induced); format: cell-based, rat (male SD); settings: for % Release (histamine): mean ± S.E., boiled control specimen = 100%, control 75.0 ± 6.7
Description: Inhibitory Effect on the Release of Histamine from Rat Peritoneal Exudate Cells
(1) Preparation of rat peritoneal cell suspension
Male SD rats weighing 250 to 280 g were used. The rat peritoneal cells were collected and isolated according to the method of Sullivan et al. First, the rat was bled to death by decapitation and immediately the hair of the abdomen was shaved, the skin was incised a few centimeters, and 10 ml of mast cell medium (MCM) was injected into the peritoneal cavity using a 18-G needle while picking up the muscle with tweezers, followed by 90-sec gentle massage. Then, the abdomen was opened to collect as much ascites as possible using a Terumo syringe. The ascites contaminated with blood was not used in the experiment. The ascites was layered in a polycarbonate tube containing 2 ml of 40% Ficoll 400 (Pharmacia) dissolved in MCM, allowed to stand at room temperature for 30 minutes, and centrifuged at 700 rpm at 4° C. for 10 minutes. Then, the sediment in the upper layer of Ficoll 400 was pipetted and washed three times with about 7 ml of MCM. The cells were counted with a Burker-Turk cytometer and using MCM as a diluent, a cell suspension of about 10^5 cells/ml (rat peritoneal cell suspension) was prepared. Mast cells were identified by staining intracellular granules with 0.05% toluidine blue.
(2) Release of histamine from mast cells
After 0.8 ml of rat peritoneal cell suspension was preincubated at 37° C. for 10 minutes, 0.1 ml of the test drug was added. The system was incubated for 5 minutes, at the end of which time 0.1 ml of 10 μg/ml of Compound 48/80 (Sigma) in physiological saline was added. After 10 minutes' incubation, the reaction mixture was cooled in ice-water for 10 minutes to terminate the reaction and centrifuged at 700 rpm at 4° C. for 5 minutes. Then, histamine in the supernatant was determined by HPLC in accordance with the method of Shore et al. as partially modified.

[5] = Table 2, 30 mg/kg, *p < 0.01, **p < 0.001 vs saline (73.7 ± 2.9)

With `CCCCOC(=O)CC(SC[C@H](NC(=O)CC[C@H](N)C(=O)O)C(=O)NCC(=O)O)C(=O)OCCCC` (stereo partly drawn) [DCE-GS di-n-butyl ester sodium, S-(di-n-butyl-α,β-dicarboxyethyl)glutathione sodium] the Edema weight [1, 5] was 60.9 ± 2.8 mg, the “% Inhibition (edema weight)” value ([1]; Table 2, 30 mg/kg) was 17.4% and the hygroscopicity (hygroscopicity) was “hygroscopic”.

For `CCOC(=O)CC(SC[C@H](NC(=O)CC[C@H](N)C(=O)O)C(=O)NCC(=O)O)C(=O)OCC` (stereo partly drawn) [DCE-GS diethyl ester sodium, S-(diethyl-α,β-dicarboxyethyl)glutathione sodium], the Edema weight [1, 5] was 49.7 ± 2.6 mg and the “% Inhibition (edema weight)” value ([1]; Table 2, 30 mg/kg) was 32.6%.

In the case of `N[C@@H](CCC(=O)N[C@@H](CSC(CC(=O)O)C(=O)O)C(=O)NCC(=O)O)C(=O)O` (stereo partly drawn) [DCE-GS, S-(α,β-Dicarboxyethyl)glutathione], the “platelet aggregation inhibitory activity” value (platelet) is given as “platelet aggregation inhibitory activity”, the “Area, Inhibition (%)” value ([2]; 3 mg/kg i.v.) is given as 6.5% and the “Dye, Inhibition (%)” value ([2]; 3 mg/kg i.v.) is given as 17.5%. The “Area (of stain)” value ([2]; 3 mg/kg i.v., *p < 0.05) was 866 ± 195 mm^2, the Dye ([2]; 3 mg/kg i.v.) was 633 ± 111 μg/site and the “Area, Inhibition (%)” value ([2]; 10 mg/kg i.v.) was 30.5%. For the same compound, the “Dye, Inhibition (%)” value ([2]; 10 mg/kg i.v.) was 38.5%, the “Area (of stain)” value ([2]; 10 mg/kg i.v., **p < 0.01) was 644 ± 88 mm^2 and the Dye ([2]; 10 mg/kg i.v.) was 472 ± 98 μg/site. The “Area, Inhibition (%)” value ([2]; 30 mg/kg i.v.) was 47.2%, the “Dye, Inhibition (%)” value ([2]; 30 mg/kg i.v.) was 43.4% and the “Area (of stain)” value ([2]; 30 mg/kg i.v., ***p < 0.001) was 489 ± 47 mm^2. For the same compound, the Dye ([2]; 30 mg/kg i.v., *p < 0.05) was 434 ± 77 μg/site, the “inhibition of area of stain and amount of dye, in words” value ([2]; 3, 10 and 30 mg/kg i.v.) was “inhibited both the area of stain and the amount of dye on the rat back dose-dependently” and the antihemogglutination activity [3] was “antihemogglutination activity”. The “effect on rat carrageenan-induced conjunctival edema, in words” value [1] was “inhibited rat carrageenan-induced conjunctival edema dose-dependently”, the “Edema weight” value ([1]; Table 1, 3 mg/kg i.v. (caudal vein), *p < 0.001 vs saline (71.7 ± 3.6)) was 50.5 ± 1.9 mg and the “% Inhibition (edema weight)” value ([1]; Table 1, 3 mg/kg i.v.) was 29.6%. For the same compound, the “Edema weight” value ([1]; Table 1, 10 mg/kg i.v., *p < 0.001 vs saline (71.7 ± 3.6)) was 44.9 ± 2.4 mg, the “% Inhibition (edema weight)” value ([1]; Table 1, 10 mg/kg i.v.) was 37.4% and the “Edema weight” value ([1]; Table 1, 30 mg/kg i.v., *p < 0.001 vs saline (71.7 ± 3.6)) was 44.9 ± 2.2 mg. For the same compound, the “% Inhibition (edema weight)” value ([1]; Table 1, 30 mg/kg i.v.) was 37.4%, the “death / abnormal behavior” value (male ddY mice) was “neither death nor abnormal behavior” and the “% Release (histamine)” value ([4]; 10^-3 M, n = 3) was 2.9 ± 3.4%. For the same compound, the “% Release (histamine)” value ([4]; 10^-4 M, n = 3) was 59.4 ± 6.2%, the “% Release (histamine)” value ([4]; 10^-5 M, n = 3) was 73.4 ± 6.5% and the “inhibition of histamine release, in words” value ([4]; 10^-5 to 10^-3 M) was “inhibited histamine release concentration-dependently”. It also gave an inhibition at 1000 µM ([4]; Rattus norvegicus, Mast cell, 10^-3 M, n = 3) of 96.1%, an inhibition at 100 µM ([4]; Rattus norvegicus, Mast cell, 10^-4 M, n = 3) of 20.8% and an inhibition at 10 µM ([4]; Rattus norvegicus, Mast cell, 10^-5 M, n = 3) of 2.1%.

With `N[C@@H](CCC(=O)N[C@@H](CS)C(=O)NCC(=O)O)C(=O)O` [GSH, glutathione, reference compound] the “effect on rat carrageenan-induced conjunctival edema, in words” value [1] was “no antiinflammatory effect”, the Edema weight [1, 5] was 74.8 ± 3.5 mg and the “% Inhibition (edema weight)” value ([1]; Table 2, 30 mg/kg) was -1.5%.

With “S-(monoethyl-α,β-dicarboxyethyl)glutathione sodium [DCE-GS monoethyl ester sodium]” the Edema weight [1, 5] was 58.5 ± 2.0 mg and the “% Inhibition (edema weight)” value ([1]; Table 2, 30 mg/kg) was 20.6%.

— US5135952A, “Antiinflammatory and/or antiallergic methods” (Senju Pharmaceutical Co., ltd., priority 1989, dated 1992)
